Test system: immobilized GST-tagged bait protein domains
Assay: ProP-PD phage selections (HD2 P8, sublibraries, HD2 P3, HD1 P8) with NGS and confidence level
Assay type: binding, human
Settings: for HD2_nucleus confidence: library HD2 P8 nucleus
[1] = HD2 library, bait SUMO1_SUMO__P63165_1_101, known motif instance of the benchmarking set found (TRUE) or not found (FALSE) among selected peptides
[2] = bait AP2B1_adaptin__P63010_700_937, library HD2, benchmarking set of validated motif instances, TRUE = motif instance recovered in the ProP-PD selection
[3] = bait PABP-B_PABP__P11940_544_623, HD2 library, whether the validated benchmark motif instance was recovered in the ProP-PD selection (TRUE/FALSE)
[4] = bait KPNA4_Arm (O00629 68-487), HD2 library, benchmark motif instance recovered in the ProP-PD selection (TRUE/FALSE)
[5] = bait SUMO1_SUMO__P63165_1_101, HD2 library, confidence level (1-4) of best matching selected peptide
[6] = bait SUMO1_SUMO__P63165_1_101, HD2 library, specificity score of best matching selected peptide
[7] = bait SUMO1_SUMO__P63165_1_101, HD2 library, whether the validated benchmark motif instance was recovered in the ProP-PD selection (TRUE/FALSE)
[8] = library HD2, bait EIF4E_eIF4E__P06730_1_217, whether the validated benchmark motif instance was recovered in the ProP-PD selection (TRUE/FALSE)
[9] = library HD2, bait EPS15_EH__P42566_121_215, best matching peptide
[10] = library HD2, bait EPS15_EH__P42566_121_215, confidence level of best matching peptide (4 High, 2-3 Medium, 1 Low)
[11] = library HD2, bait EPS15_EH__P42566_121_215, whether the validated benchmark motif instance was recovered in the ProP-PD selection (TRUE/FALSE)
[12] = library HD2, bait VASP_EVH1__P50552_1_114, validated benchmark motif instance, in_library_check TRUE, TRUE/FALSE = instance recovered in ProP-PD selection
[13] = library HD2, bait KLC1_TPR__Q07866_203_497, whether the validated benchmark motif instance was recovered in the ProP-PD selection (TRUE/FALSE)
[14] = HD2 library, bait TSG101_UEV__Q99816_1_145, known motif instance of the benchmarking set found (TRUE) or not found (FALSE) among selected peptides
[15] = bait CLTC_Clathrin-propeller__Q00610_1_364, library HD2, benchmarking set of validated motif instances, TRUE = motif instance recovered in the ProP-PD selection
[16] = HD2 library, bait TNKS_TANK-peptide-bind__O95271_174_649, known motif instance of the benchmarking set found (TRUE) or not found (FALSE) among selected peptides
[17] = library HD2, bait WDR5_WD_1234567_P61964_21_334, validated benchmark motif instance, in_library_check TRUE, TRUE/FALSE = instance recovered in ProP-PD selection

NDIDEVIIPTAPLYKQILNL [TSG101 319-324]
motif_found (HD2 library, bait TSG101_UEV__Q99816_1_145, benchmark motif instance, in_library_check FALSE, in_library_coverage 0): FALSE

NEEINIASSDSEVEIVGVQEHARC
motif_found [1]: FALSE

NGAEDDDDDEFGEFGGFSEVS [AFTPH]
motif_found [2]: FALSE

NGSSSVNWPPEFRPGEPWKGYPNIDPET
motif_found [3]: FALSE

NHWQKIRTMVNLPVISPFK [ITPKA 165-183]
motif_found (HD2 library, bait CALM1_EF-hand__P0DP23_2_149, benchmark motif instance, in_library_check FALSE, in_library_coverage 0): FALSE

NIHNSKAPKKNRLRRKSSTR
motif_found [4]: FALSE

NKKVEVIDLTIDSSSD
best_confidence [5]: 4
best_specificity [6]: 1
motif_found [7]: TRUE

NLEEKKRYDREFLLGFQFIFA
motif_found [8]: FALSE

NLNGTIKDDFSEFDNLRTSKKTAE [EPN2]
motif_found [2]: FALSE

NLQLPSLDEQVIPARL
HD confidence (bait ANKRA2_Ank__Q9H9E1_142_313, library HD): 3
HD count proportions (bait ANKRA2_Ank__Q9H9E1_142_313, library HD, mean normalised NGS counts): 0.0005556
HD mean counts (bait ANKRA2_Ank__Q9H9E1_142_313, library HD, mean raw NGS counts, all selections): 7.75

NMTPYRSPPPYVPP----
motif_found (bait NEDD4_WW_4 (P46934 890-928), HD2 library, benchmark motif instance recovered in the ProP-PD selection (TRUE/FALSE)): FALSE
motif_found (library HD2, bait YAP1_WW_1_P46937_169_207, validated benchmark motif instance, in_library_check TRUE, TRUE/FALSE = instance recovered in ProP-PD selection): FALSE

NPFLAPGAPATSAPVN
best_specificity [9]: 1
best_confidence [10]: 3
motif_found [11]: TRUE

NPNAKEFVPGVKYGNI
best_confidence (bait PABP-B_PABP__P11940_544_623, HD2 library, confidence level (1-4) of best matching selected peptide): 2
best_specificity (bait PABP-B_PABP__P11940_544_623, HD2 library, specificity score of best matching selected peptide): 1
motif_found [3]: TRUE

NRVAYIEFPPPPPLDADQI
motif_found [12]: FALSE

NSVTSTNLEWDDSAIAPSSEDYDF
motif_found [13]: FALSE

NTPSGKSDDDFADFHSSKFSS [SYNRG]
motif_found [2]: FALSE

NVQRLLEAAEFLERRE
best_confidence (bait SIN3A_PAH__Q96ST3_295_383, HD2 library, confidence level (1-4) of best matching selected peptide): 3
best_specificity (bait SIN3A_PAH__Q96ST3_295_383, HD2 library, specificity score of best matching selected peptide): 0.6
motif_found (bait SIN3A_PAH__Q96ST3_295_383, HD2 library, whether the validated benchmark motif instance was recovered in the ProP-PD selection (TRUE/FALSE)): TRUE

NYCPPVKRERTSSL
motif_found [4]: FALSE

NYPFTWNTPSAPPGYNIAVK
motif_found [14]: FALSE

PAAAAANELNNNLPGGAPAA
motif_found (bait SPSB1_SPRY__Q96BD6_30_231, HD2 library, whether the validated benchmark motif instance was recovered in the ProP-PD selection (TRUE/FALSE)): FALSE

PAPALPPKPPKPTTVA
best_specificity (bait CRK_SH3_1_P46108_124_198, library HD2, best matching peptide): 1
best_confidence (bait CRK_SH3_1_P46108_124_198, library HD2, confidence level of best matching peptide (4 = High, 2 or 3 = Medium, 1 = Low)): 2

PAPAPLPPPSAPSLQPSRKL
motif_found [14]: FALSE

PATKEISLLDLEDFTPPSV [AP3B2]
motif_found [15]: FALSE

PEISLEAEPIELVETAGDEIVD
motif_found [1]: FALSE

PFEEPTCINPFEMDSDSGP
motif_found [11]: FALSE

PFSEQASLLDLDFDPLPPV [BIN1]
motif_found [15]: FALSE

PGADVVDLTLDSSSSS
best_confidence [5]: 2
best_specificity [6]: 1
motif_found [7]: TRUE

PGGGHPAPSWVAFAHT
HD2 confidence (bait AP2B1_adaptin__P63010_700_937, HD2 P8 selection, non primary paralogue peptide match, confidence level -4 to 4: 4 = High, 3 or 2 = Medium, 1 = Low, 0 = Filtered/Noise): 4

PGGTRIIYDRKFLLDRRNSPM
motif_found [8]: FALSE

PGGTRIIYDRKFLLECKNSPI
motif_found [8]: FALSE

PGPPAPNTNPFLL------
motif_found [11]: FALSE

PGSAPPPQAQGPPYPTYPGYPGYCQ,QAQGPPYPTYPGY [PDCD6IP]
motif_found (bait CEP55_EABR__Q53EZ4_160_217, library HD2, benchmarking set of validated motif instances, TRUE = motif instance recovered in the ProP-PD selection): FALSE

PIPHDGNLYPRLYPELSQY [SDCBP 45-49]
motif_found (HD2 library, bait PDCD6IP_Alix-V-domain__Q8WUM4_360_702, benchmark motif instance, in_library_check FALSE, in_library_coverage 0): FALSE

PLIDLPLIDFCDTPEA
HD2_nc confidence (bait CLTC_Clathrin-propeller__Q00610_1_364, HD2 P8 nucleocytoplasmic sublibrary, confidence level (4 = High, 2-3 = Medium, 1 = Low)): 4
HD2_nc mean counts (bait CLTC_Clathrin-propeller__Q00610_1_364, HD2 P8 nucleocytoplasmic sublibrary, mean NGS counts over replicate selections): 154.7
HD2_nc count proportions (bait CLTC_Clathrin-propeller__Q00610_1_364, HD2 P8 nucleocytoplasmic sublibrary, mean proportion of NGS counts): 0.002602

PLTKDVSLLDLDDFNPVST [AP3B1]
motif_found [15]: FALSE

PLYTSPSLPNITLGLP
best_specificity (bait ANKRA2_Ank__Q9H9E1_142_313, library HD2, best matching peptide): 1
best_confidence (bait ANKRA2_Ank__Q9H9E1_142_313, library HD2, confidence level of best matching peptide (4 = High, 2 or 3 = Medium, 1 = Low)): 3

PMLPDLTLEAWPSTDK
confidence (library HD, bait ANKRA2_Ank__Q9H9E1_142_313, ProP-PD peptides with disease-related mutations): 3

PPAEEPEARPDGEGSPGKARPG
motif_found [16]: FALSE

PPAGLNSSWVELPMNSSNG
motif_found (bait MAP1LC3B_ATG8 (Q9GZQ8 2-119), HD2 library, benchmark motif instance recovered in the ProP-PD selection (TRUE/FALSE)): FALSE

PPAPVNDEPIVIED-------
motif_found [1]: FALSE

PPDTKLSKLDVLLLAT
HD2_nucleus confidence (bait SIN3A_PAH__Q96ST3_295_383): 4

PPGPPPPYHAHAHLHH
HD confidence (bait YAP1_WW_1_P46937_169_207, library HD): 3
p3_HD2 confidence (bait YAP1_WW_1_P46937_169_207, library HD2 P3): 2
p3_HD2 count proportions (bait YAP1_WW_1_P46937_169_207, library HD2 P3, mean normalised NGS counts): 0.001797
p3_HD2 mean counts (bait YAP1_WW_1_P46937_169_207, library HD2 P3, mean raw NGS counts, all selections): 44.67
HD2 confidence (bait YAP1_WW_1_P46937_169_207, library HD2 P8): 4
HD2_nucleus confidence (bait YAP1_WW_1_P46937_169_207): 4
HD count proportions (bait YAP1_WW_1_P46937_169_207, library HD, mean normalised NGS counts): 0.02186
HD mean counts (bait YAP1_WW_1_P46937_169_207, library HD, mean raw NGS counts, all selections): 187.3

PPLNPHGAARAEVYLRKCTFD
motif_found [17]: FALSE

PPLNPHGSARAEVHLRKSAFD
motif_found [17]: FALSE

PPMGEVVTPTAPQEPPESVR
motif_found (library HD2, bait TSG101_UEV__Q99816_1_145, validated benchmark motif instance, in_library_check TRUE, TRUE/FALSE = instance recovered in ProP-PD selection): FALSE

PPPEDFPLPPPPLAGDGDD
motif_found [12]: FALSE

PPPIEESFPPAPLEEEIFP
motif_found [12]: FALSE

PPPPPEDFPLPPPPLAGDG
motif_found [12]: FALSE

PPRLPELAPTAPLPYPAPEA
motif_found [14]: FALSE

PQLPHLQRSPPDGQSF
best_specificity (HD2 library, bait TNKS_TANK-peptide-bind__O95271_174_649, best matching selected peptide): 1
best_confidence (HD2 library, bait TNKS_TANK-peptide-bind__O95271_174_649, confidence level of best matching selected peptide): 2
motif_found [16]: TRUE

PQPKLPYLPTFPFSMP
HD2 confidence (bait ANKRA2_Ank__Q9H9E1_142_313, HD2 P8 selection, confidence level -4 to 4: 4 = High, 3 or 2 = Medium, 1 = Low, 0 = Filtered/Noise): 2

PQYLNPFDEPEAFVTI
best_specificity [9]: 1
best_confidence [10]: 2
motif_found [11]: TRUE

PREHQTGSARSEGYYPISKKE
motif_found [17]: FALSE

PSENSNEFEWEDDLPKPKTTEVIR
motif_found [13]: FALSE

PSNPDLDAGVSEHSGDWLD
motif_found (library HD2, bait USP7_MATH-TRAF__Q93009_53_206, validated benchmark motif instance, in_library_check TRUE, TRUE/FALSE = instance recovered in ProP-PD selection): FALSE

PSTNPFVAAAGPSVAS
best_specificity [9]: 1
best_confidence [10]: 2
motif_found [11]: TRUE

PSTRKDYPAAKRVKLDSVRVLR
motif_found [4]: FALSE

PVLEKDDLMDMDASQQNLF [HIP1]
motif_found [15]: FALSE

PYGDDMTVRKQPEGNPKPDIIE
motif_found [16]: FALSE

QASALSFPAPPSRPLPPDPV [ADAM15]
motif_found (bait CRK_SH3_1_P46108_124_198, library HD2, benchmarking set of validated motif instances, TRUE = motif instance recovered in the ProP-PD selection): FALSE

From article PMC8769072, “Proteome‐scale mapping of binding sites in the unstructured regions of the human proteome” (Molecular Systems Biology, 2022)
